# Test results reported in patent US6489295B1, “Antagonists of intestinotrophic GLP-2 peptides” (1149336 Ontario Inc., priority 1996, dated 2002).
# Non-standard residues stand in square brackets, D forms with d. Residues, ends and D or L forms follow the SMILES beside them. No end group written: not given here. pY = N[C@@H](Cc1ccc(OP(=O)(O)O)cc1)C(=O)O
# Tested on: intestinotrophic activity of rat GLP-2
# Experiment: GLP-2 antagonist assessment by co-administration into mice with GLP-2 (small bowel weight)
# Type: in vivo
# Conditions: CD1 female mice, antagonist to GLP-2 ratio 4:1 by weight (12.5 μg/2.5 μg rat GLP-2) s.c. twice a day, 10-14 days
# Protocol: The candidate peptide antagonist and rat GLP-2 were dissolved in PBS to give a final ratio of 25 μg antagonist/2.5 μg GLP-2 per 0.5 ml phosphate buffered saline solution (for a 10:1 ratio), or […] antagonist/2.5 μg GLP-2 per 0.5 ml phosphate buffered saline solution (for a 4:1 ratio), as indicated. The antagonist/GLP-2 mixture was administered to 6-8 week old CD1 female mice subcutaneously, with the amount of peptide injected being 25 μg antagonist/2.5 μg GLP-2 in 0.5 ml twice a day, or 12.5 μg antagonist/2.5 μg GLP-2 in 0.5 ml twice a day. After 10-14 days, peptide-injected and control (saline-injected) mice were sacrificed, and small bowel weights were determined.
row,Compound,% Antagonism [%]
1,ratGLP-2(3-33),33

# Same assay, conditions: CD1 female mice, antagonist to GLP-2 ratio 10:1 by weight (25 μg/2.5 μg rat GLP-2) s.c. twice a day, 10-14 days
row,Compound,% Antagonism [%]
1,ratGLP-2(4-33),32
2,ratGLP-2(5-33),16
3,ratGLP-2(2-33),42

# Target: T1, human placental DPP-IV (Homo sapiens, UniProt P27487)
# T1 sequence (P27487 whole entry): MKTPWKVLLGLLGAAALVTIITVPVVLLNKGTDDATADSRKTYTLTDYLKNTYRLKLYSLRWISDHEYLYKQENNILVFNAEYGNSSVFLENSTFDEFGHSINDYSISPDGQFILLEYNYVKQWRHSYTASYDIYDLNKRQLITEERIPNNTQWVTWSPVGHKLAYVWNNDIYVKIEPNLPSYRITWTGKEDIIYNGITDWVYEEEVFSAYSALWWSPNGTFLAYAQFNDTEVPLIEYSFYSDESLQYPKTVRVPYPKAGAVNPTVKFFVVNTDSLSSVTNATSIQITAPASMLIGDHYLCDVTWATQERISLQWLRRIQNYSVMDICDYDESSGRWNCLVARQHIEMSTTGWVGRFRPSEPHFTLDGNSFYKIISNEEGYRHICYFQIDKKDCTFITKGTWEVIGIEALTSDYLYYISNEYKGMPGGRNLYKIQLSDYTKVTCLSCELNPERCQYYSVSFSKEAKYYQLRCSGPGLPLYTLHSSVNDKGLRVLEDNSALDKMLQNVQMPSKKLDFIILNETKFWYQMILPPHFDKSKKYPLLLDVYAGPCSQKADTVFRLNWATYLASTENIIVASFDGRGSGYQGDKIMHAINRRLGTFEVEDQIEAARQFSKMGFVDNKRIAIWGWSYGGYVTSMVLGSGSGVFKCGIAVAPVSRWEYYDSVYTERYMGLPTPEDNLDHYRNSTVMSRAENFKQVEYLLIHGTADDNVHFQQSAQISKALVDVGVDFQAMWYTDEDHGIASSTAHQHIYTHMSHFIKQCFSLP
# Experiment: Assay for resistance to dipeptidyl peptidase IV
# Conditions: 24 hours at 37° C., RP-HPLC
# Protocol: To perform the assay, 2.5 microliters (μl) of a solution of human placental DPP-IV (Calbiochem, La Jolla, Calif., cat. # 317624) containing 0.125 milliunits (mU) of enzyme in 50% glycerol, mM Tris, pH 7.8, EDTA and 0.02% NaN3 was added to 50 μl of a solution of the test peptide prepared at a concentration of 0.2 mg/ml in PBS at pH 7.4. The mixture was incubated at 37° C. in a circulating water bath for 24 hours. The incubation was quenched by the addition of 50 μl of a solution of diprotin A prepared at a concentration of 4 mg/ml in PBS. Each peptide was tested in duplicate.
# Each sample was analyzed by reverse-phase (RP) HPLC as follows: 90 μl of the quenched incubation mixture was injected onto a Rainin Dynamax 300 Å, C18, 5 micron, 4.6×250 millimeter column. The samples were eluted with 0.1% trifluoroacetic acid (TFA) in water modified with 0.1% acetonitrile using a linear gradient and a flow rate of 1 ml per minute. Sample components were detected at 214 nanometers (nm). The extent of cleavage was measured by relative integration of the peak corresponding to the cleavage product compared to that of the remaining undigested parent peptide.
row,Compound,cleavage products detected after DPP-IV incubation
1,[Gly^2]ratGLP-2,No cleavage products were detected
2,[D-Ala^2]ratGLP-2,No cleavage products were detected

# Target: T1, human placental DPP-IV
# Experiment: not given
# Conditions: not given
row,Compound,cleavage products detected after DPP-IV incubation
1,"HGDGSFSDEMNTILDNLAARDFINWLIQTKIAD [[Gly^2, Ala^32]GLP-2]",No cleavage products were detected
2,"HGDGSFSDEMNTILDNLAARDAINWLIQTKITD [[Gly^2, Ala^22]GLP-2]",No cleavage products were detected
3,HEDGSFSDEMNTILDNLAARDFINWLIQTKITD [[Glu^2]GLP-2],No cleavage products were detected
4,HWDGSFSDEMNTILDNLAARDFINWLIQTKITD [[Trp^2]GLP-2],No cleavage products were detected
5,"HGDGSFSDEMNTILDNLAARDFINWLIQAKITD [[Gly^2, Ala^29]GLP-2]",No cleavage products were detected
6,"HGDGSFSDEMNTILDNLAARDFINWLIQTKITA [[Gly^2, Ala^33]GLP-2]",No cleavage products were detected
7,CC[C@H](C)[C@H](NC(=O)[C@H](Cc1ccccc1)NC(=O)[C@H](CC(=O)O)NC(=O)[C@H](CCCNC(=N)N)NC(=O)[C@H](C)NC(=O)[C@H](C)NC(=O)[C@H](CC(C)C)NC(=O)[C@H](CC(N)=O)NC(=O)[C@H](CC(=O)O)NC(=O)[C@H](CC(C)C)NC(=O)[C@@H](NC(=O)[C@@H](NC(=O)[C@H](CC(N)=O)NC(=O)[C@H](CCSC)NC(=O)[C@H](CCC(=O)O)NC(=O)[C@H](CC(=O)O)NC(=O)[C@H](CO)NC(=O)[C@H](Cc1ccccc1)NC(=O)[C@H](CO)NC(=O)CNC(=O)[C@H](CC(=O)O)NC(=O)[C@H](Cc1ccc(OP(=O)(O)O)cc1)NC(=O)[C@@H](N)Cc1c[nH]cn1)[C@@H](C)O)[C@@H](C)CC)C(=O)N[C@@H](CC(N)=O)C(=O)N[C@@H](Cc1c[nH]c2ccccc12)C(=O)N[C@@H](CC(C)C)C(=O)N[C@H](C(=O)N[C@@H](CCC(N)=O)C(=O)N[C@H](C(=O)N[C@@H](CCCCN)C(=O)N[C@H](C(=O)N[C@H](C(=O)N[C@@H](CC(=O)O)C(=O)O)[C@@H](C)O)[C@@H](C)CC)[C@@H](C)O)[C@@H](C)CC [[PO3-Tyr^2]GLP-2] (H-H[pY]DGSFSDEMNTILDNLAARDFINWLIQTKITD-OH; N-terminus and C-terminus assumed),No cleavage products were detected
8,HRDGSFSDEMNTILDNLAARDFINWLIQTKITD [[Arg^2]GLP-2],No cleavage products were detected
9,HCDGSFSDEMNTILDNLAARDFINWLIQTKITD [[Cys^2]GLP-2],No cleavage products were detected
10,"HGDGSFSDEMNTILANLAARDFINWLIQTKITD [[Gly^2, Ala^15]GLP-2]",No cleavage products were detected
11,HLDGSFSDEMNTILDNLAARDFINWLIQTKITD [[Leu^2]GLP-2],No cleavage products were detected
